These results are taken from patent US20260356856A1, “KRAS G12S AND G12C INHIBITORS” (MIRATI THERAPEUTICS, INC., priority 2023, published 2026).

One may read the IC50 as the midpoint of a concentration-inhibition curve. Low readings indicate greater potency in that assay, high ones weaker potency in that assay.

Assay [1] has as its target T1, KRas-mediated phosphorylation of ERK in MKN1 cells (Homo sapiens, UniProt P01116).
T1 construct: pERK HTRF read-out
In words: Inhibition of KRas-mediated phosphorylation of ERK (HTRF), MKN1 cells. The class given is cell-based. The note with it: MKN1 cells (KRas WT); HTRF pERK; 3 h incubation. The procedure: Inhibition of KRas Phosphorylation of ERK (HTRF) by Exemplary Compounds of Formula (Ia) or (Ib)
Cisbio HTRF Advanced pERK Assay Catalog #64AERPEH • Cells: MKN1, PSN1 • Procedure: • 1. Day 1: Seed 6,000 cells/well −25 μl/well in 384-well white solid bottom plate; RPM1_10% FBS. Incubate overnight at 37 °C/5% CO2. • 2.

A further assay has as its target T2, KRas WT (Homo sapiens, UniProt P01116).
T2 construct: Biotinylated KRas (corresponding to amino acids 1-169, produced at Accelegan Inc.); biotin (biotinylated); purchased Accelegan Inc
In words: KRas binding assay, TR-FRET displacement of Cy5 labelled tracer. The note with it: 60-minute incubation at room temperature, 1% DMSO, pH 7.5. A digest of the protocol: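 Assay buffer was HEPES (50 mM, pH 7.5) with MgCl2 (5 mM), DTT (1 mM) and Tween-20 (0.005%). Biotinylated KRas spanning residues 1-169 met tracer, terbium streptavidin and compound (1% DMSO, final) for 60 minutes at ambient temperature before reading. POC values were fitted for IC50.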
In general terms: Time-resolved FRET reads energy transfer from a long-lived donor to a nearby acceptor.

The target of another assay is T3, KRas G12C (Homo sapiens, UniProt P01116, G12C).
T3 construct: Biotinylated KRas (corresponding to amino acids 1-169, produced at Accelegan Inc.); biotin (biotinylated); purchased Accelegan Inc
T3 sequence (P01116 1-169 isoform P01116-2 G12C): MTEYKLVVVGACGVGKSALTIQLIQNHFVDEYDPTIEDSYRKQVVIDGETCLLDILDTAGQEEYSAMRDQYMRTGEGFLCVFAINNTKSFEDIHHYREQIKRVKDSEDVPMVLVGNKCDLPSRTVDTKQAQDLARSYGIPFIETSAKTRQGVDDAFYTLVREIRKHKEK
Described as above. The note with it: 60-minute incubation at room temperature, 1% DMSO, pH 7.5. A digest of the protocol: (§1)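 Displacement measured on KRas residues 1-169 (biotinylated, terbium-streptavidin labelled); 1 h, RT; 1% DMSO final; HEPES pH 7.5 / MgCl2 / Tween-20 / DTT. IC50: 4-parameter fit.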

A further assay deals with T4, KRas G12S (Homo sapiens, UniProt P01116, G12S).
T4 construct: Biotinylated KRas (corresponding to amino acids 1-169, produced at Accelegan Inc.); biotin (biotinylated); purchased Accelegan Inc
T4 sequence (P01116 1-169 isoform P01116-2 G12S): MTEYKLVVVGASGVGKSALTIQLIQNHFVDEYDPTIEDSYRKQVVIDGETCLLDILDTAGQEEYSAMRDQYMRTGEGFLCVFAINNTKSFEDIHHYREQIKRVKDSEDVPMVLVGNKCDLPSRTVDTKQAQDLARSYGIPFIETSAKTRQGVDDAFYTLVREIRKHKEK
Described as above. The note with it: 60-minute incubation at room temperature, 1% DMSO, pH 7.5. A digest of the protocol:
as §1

For assay [2], the target named is T5, KRas-mediated phosphorylation of ERK in H358 cells (Homo sapiens, UniProt P01116, G12C).
T5 construct: pERK HTRF read-out
T5 sequence (P01116 1-188 isoform P01116-2 G12C): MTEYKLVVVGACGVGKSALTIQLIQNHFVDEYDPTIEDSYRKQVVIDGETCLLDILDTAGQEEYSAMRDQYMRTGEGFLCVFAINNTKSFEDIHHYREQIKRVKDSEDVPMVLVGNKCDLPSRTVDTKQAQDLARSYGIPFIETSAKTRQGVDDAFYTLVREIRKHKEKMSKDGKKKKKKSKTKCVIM
In words: Inhibition of KRas-mediated phosphorylation of ERK (HTRF), H358 cells. The class given is cell-based. To be noted: HTRF pERK, 3 h incubation.

Assay [3] deals with T6, KRas-mediated phosphorylation of ERK in A549 cells (Homo sapiens, UniProt P01116, G12S).
T6 construct: pERK HTRF read-out
T6 sequence (P01116 1-188 isoform P01116-2 G12S): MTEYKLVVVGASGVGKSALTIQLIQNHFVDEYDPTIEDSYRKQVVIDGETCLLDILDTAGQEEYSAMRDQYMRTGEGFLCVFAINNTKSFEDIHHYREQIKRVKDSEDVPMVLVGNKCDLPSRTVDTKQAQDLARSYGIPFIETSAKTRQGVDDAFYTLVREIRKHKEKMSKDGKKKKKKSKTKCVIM
The assay can be described thus: Inhibition of KRas-mediated phosphorylation of ERK (HTRF), A549 cells. The class given is cell-based. The note with it: HTRF pERK, 3 h incubation.

T2 sequence (P01116 1-169 isoform P01116-2): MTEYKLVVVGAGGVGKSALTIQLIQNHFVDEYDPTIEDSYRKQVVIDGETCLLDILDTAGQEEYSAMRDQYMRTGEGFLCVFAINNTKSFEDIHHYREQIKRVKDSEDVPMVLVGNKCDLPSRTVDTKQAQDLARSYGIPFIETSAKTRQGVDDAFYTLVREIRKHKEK
T1 sequence (P01116 1-188 isoform P01116-2): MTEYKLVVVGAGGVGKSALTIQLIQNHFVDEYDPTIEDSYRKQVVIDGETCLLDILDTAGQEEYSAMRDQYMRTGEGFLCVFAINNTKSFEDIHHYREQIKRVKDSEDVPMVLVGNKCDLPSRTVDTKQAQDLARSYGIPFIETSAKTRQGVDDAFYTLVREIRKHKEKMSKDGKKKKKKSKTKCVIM

As to `N#Cc1c(N)sc2c(F)ccc(-c3c(Cl)cc4c(N5CCC(C(=O)n6cccn6)CC5)nc(OC[C@@]56CCCN5C[C@H](F)C6)nc4c3F)c12` [Example 129, 4-(4-(4-(1H-pyrazole-1-carbonyl)piperidin-1-yl)-6-chloro-8-fluoro-2-(((2R,7aS)-2-fluorotetrahydro-1H-pyrrolizin-7a(5H)-yl)methoxy)quinazolin-7-yl)-2-amino-7-fluorobenzo[b]thiophene-3-carbonitrile], the IC50 in assay [1] was 139 nM; at KRas WT, 8 nM; on KRas G12C, 7 nM; at KRas G12S, 5 nM; in assay [2], 26 nM; in assay [3], 4 nM.
With `Cc1ccn(C(=O)C2CCCN(c3nc(OC[C@@]45CCCN4C[C@H](F)C5)nc4c(F)c(-c5ccc(F)c6sc(N)c(C#N)c56)c(Cl)cc34)CC2)n1` (stereo partly drawn) [Example 130, 2-amino-4-(6-chloro-8-fluoro-2-(((2R,7aS)-2-fluorotetrahydro-1H-pyrrolizin-7a(5H)-yl)methoxy)-4-(4-(3-methyl-1H-pyrazole-1-carbonyl)azepan-1-yl)quinazolin-7-yl)-7-fluorobenzo[b]thiophene-3-carbonitrile], the IC50 in assay [1] is 200 nM; at KRas WT, 10 nM; at KRas G12C, 11 nM; at KRas G12S, 8 nM; in assay [2], 7 nM; in assay [3], 7 nM.
Turning to `N#Cc1c(N)sc2c(F)ccc(-c3c(Cl)cc4c(N5CCCC(C(=O)n6cccn6)CC5)nc(OC[C@@]56CCCN5C[C@H](F)C6)nc4c3F)c12` (stereo partly drawn) [Example 131, 4-(4-(4-(1H-pyrazole-1-carbonyl)azepan-1-yl)-6-chloro-8-fluoro-2-(((2R,7aS)-2-fluorotetrahydro-1H-pyrrolizin-7a(5H)-yl)methoxy)quinazolin-7-yl)-2-amino-7-fluorobenzo[b]thiophene-3-carbonitrile], the IC50 amounted to 258 nM in assay [1]; 7 nM on KRas WT; 7 nM at KRas G12C; 6 nM on KRas G12S; 9 nM in assay [2]; 5 nM in assay [3].
For `Cc1ccn(C(=O)C2CCCN(c3nc(OC[C@@]45CCCN4C[C@H](F)C5)nc4c(F)c(-c5ccc(F)c6sc(N)c(C#N)c56)c(Cl)cc34)C2)n1` (stereo partly drawn) [Example 132, 2-amino-4-(6-chloro-8-fluoro-2-(((2R,7aS)-2-fluorotetrahydro-1H-pyrrolizin-7a(5H)-yl)methoxy)-4-(3-(3-methyl-1H-pyrazole-1-carbonyl)piperidin-1-yl)quinazolin-7-yl)-7-fluorobenzo[b]thiophene-3-carbonitrile], the IC50 in assay [1] was 404 nM; on KRas WT, 25 nM; on KRas G12C, 19 nM; at KRas G12S, 17 nM; in assay [2], 1200 nM; in assay [3] it was more than 10000 nM.
`Cc1ccn(C(=O)C2CCN(c3nc(OC[C@@]45CCCN4C[C@H](F)C5)nc4c(F)c(-c5ccc(F)c6sc(N)c(C#N)c56)c(Cl)cc34)CC2)n1` [Example 133, 2-amino-4-(6-chloro-8-fluoro-2-(((2R,7aS)-2-fluorotetrahydro-1H-pyrrolizin-7a(5H)-yl)methoxy)-4-(4-(3-methyl-1H-pyrazole-1-carbonyl)piperidin-1-yl)quinazolin-7-yl)-7-fluorobenzo[b]thiophene-3-carbonitrile]: the IC50 was found to be 105 nM in assay [1]; 17 nM on KRas WT; 17 nM at KRas G12C; 7 nM at KRas G12S; 20 nM in assay [2]; 7 nM in assay [3].
For the compound `Cc1ccn(C(=O)CC2CN(c3nc(OC[C@@]45CCCN4C[C@H](F)C5)nc4c(F)c(-c5ccc(F)c6sc(N)c(C#N)c56)c(Cl)cc34)C2)n1` [Example 138, 2-amino-4-(6-chloro-8-fluoro-2-(((2R,7aS)-2-fluorotetrahydro-1H-pyrrolizin-7a(5H)-yl)methoxy)-4-(3-(2-(3-methyl-1H-pyrazol-1-yl)-2-oxoethyl)azetidin-1-yl)quinazolin-7-yl)-7-fluorobenzo[b]thiophene-3-carbonitrile], the IC50 stood at 106 nM in assay [1]; 16 nM on KRas WT; 13 nM at KRas G12C; 6 nM on KRas G12S; 157 nM in assay [2]; 137 nM in assay [3].
Turning to `Cc1ccn(C(=O)C2CCN(c3nc(OC[C@@]45CCCN4C[C@H](F)C5)nc4c(F)c(-c5ccc(F)c6sc(N)c(C#N)c56)c(Cl)cc34)C2)n1` (stereo partly drawn) [Example 139, 2-amino-4-(6-chloro-8-fluoro-2-(((2R,7aS)-2-fluorotetrahydro-1H-pyrrolizin-7a(5H)-yl)methoxy)-4-(3-(3-methyl-1H-pyrazole-1-carbonyl)pyrrolidin-1-yl)quinazolin-7-yl)-7-fluorobenzo[b]thiophene-3-carbonitrile], the half-maximal inhibitory concentration (IC50) in assay [1] was found to be 1210 nM; at KRas WT, 16 nM; on KRas G12C, 5 nM; on KRas G12S, 5 nM; in assay [2], 412 nM; in assay [3], 46 nM.
With `COc1ccn(C(=O)C2CCCN(c3nc(OC[C@@]45CCCN4C[C@H](F)C5)nc4c(F)c(-c5ccc(F)c6sc(N)c(C#N)c56)c(Cl)cc34)CC2)n1` (stereo partly drawn) [Example 140, 2-amino-4-(6-chloro-8-fluoro-2-(((2R,7aS)-2-fluorotetrahydro-1H-pyrrolizin-7a(5H)-yl)methoxy)-4-(4-(3-methoxy-1H-pyrazole-1-carbonyl)azepan-1-yl)quinazolin-7-yl)-7-fluorobenzo[b]thiophene-3-carbonitrile], the 50% inhibitory concentration (IC50) amounted to 178 nM in assay [1]; 15 nM on KRas WT; 11 nM at KRas G12C; 3 nM on KRas G12S; 22 nM in assay [2]; 8 nM in assay [3].
With `Cc1ccn(C(=O)CCCN(C)c2nc(OC[C@@]34CCCN3C[C@H](F)C4)nc3c(F)c(-c4ccc(F)c5sc(N)c(C#N)c45)c(Cl)cc23)n1` [Example 141, 2-amino-4-(6-chloro-8-fluoro-2-(((2R,7aS)-2-fluorotetrahydro-1H-pyrrolizin-7a(5H)-yl)methoxy)-4-(methyl (4-(3-methyl-1H-pyrazol-1-yl)-4-oxobutyl)amino)quinazolin-7-yl)-7-fluorobenzo[b]thiophene-3-carbonitrile], the concentration for half-maximal inhibition (IC50) in assay [1] is 363 nM; at KRas WT, 11 nM; at KRas G12C, less than 2 nM; at KRas G12S, less than 2 nM; in assay [2], 26 nM; in assay [3], 10 nM.
In the case of `Cc1ccn(C(=O)CCCNc2nc(OC[C@@]34CCCN3C[C@H](F)C4)nc3c(F)c(-c4ccc(F)c5sc(N)c(C#N)c45)c(Cl)cc23)n1` [Example 142, 2-amino-4-(6-chloro-8-fluoro-2-(((2R,7aS)-2-fluorotetrahydro-1H-pyrrolizin-7a(5H)-yl)methoxy)-4-((4-(3-methyl-1H-pyrazol-1-yl)-4-oxobutyl)amino)quinazolin-7-yl)-7-fluorobenzo[b]thiophene-3-carbonitrile], the IC50 in assay [1] was 531 nM; on KRas WT, 10 nM; at KRas G12C, less than 2 nM; on KRas G12S, less than 2 nM; in assay [2], 8 nM; in assay [3], 7 nM.
On to `CCc1c(F)ccc2cc(O)cc(N3CCc4c(nc(OC[C@@]56CCCN5C[C@H](F)C6)nc4N4CCCC(C(=O)n5ccc(C)n5)CC4)C3)c12` (stereo partly drawn) [Example 145, (1-(7-(8-ethyl-7-fluoro-3-hydroxynaphthalen-1-yl)-2-(((2R,7aS)-2-fluorotetrahydro-1H-pyrrolizin-7a(5H)-yl)methoxy)-5,6,7,8-tetrahydropyrido[3,4-d]pyrimidin-4-yl)azepan-4-yl)(3-methyl-1H-pyrazol-1-yl)methanone], for which the IC50 in assay [1] was found to be 4010 nM; on KRas WT, 331 nM; at KRas G12C, 237 nM; on KRas G12S it was 27 nM; in assay [2] it was 2810 nM; in assay [3], 137 nM.
Turning to `CCc1c(F)ccc2cc(O)cc(N3CCc4c(nc(OC[C@@]56CCCN5C[C@H](F)C6)nc4N4CCC(C(=O)n5ccc(C)n5)CC4)C3)c12` [Example 146, (1-(7-(8-ethyl-7-fluoro-3-hydroxynaphthalen-1-yl)-2-(((2R,7aS)-2-fluorotetrahydro-1H-pyrrolizin-7a(5H)-yl)methoxy)-5,6,7,8-tetrahydropyrido[3,4-d]pyrimidin-4-yl)piperidin-4-yl)(3-methyl-1H-pyrazol-1-yl)methanone], the 50% inhibitory concentration (IC50) is 2530 nM in assay [1]; 412 nM at KRas WT; 676 nM on KRas G12C; 477 nM on KRas G12S; 3830 nM in assay [2]; more than 10000 nM in assay [3].
